The record followed here is publication PMC7318359, “Stapled Peptides as HIF‐1α/p300 Inhibitors: Helicity Enhancement in the Bound State Increases Inhibitory Potency” (Chemistry (Weinheim an Der Bergstrasse, Germany), 2020).

Bridge positions count the residues as written; N and C are the ends. Ends that are not written are not given here. Peptide text beside a SMILES is read from it.

One experiment addresses HIF‐1α/p300 interaction (Homo sapiens, UniProt Q09472). Kind of experiment: Fluorescence anisotropy competition assay (displacement of FITC‐Ahx‐HIF‐1α786–826 tracer from p300). The experiment is classed as binding. The settings on record: p300 (100 nM); for IC50: FA competition, FITC‐Ahx‐HIF‐1α786–826 tracer, 20 mM Tris, 100 mM NaCl 0.1 mM DTT, pH 7.46, read after 45 minutes at room temperature, triplicate. As for the experimental part:
Fluorescence anisotropy assays were performed in 384‐well plates (Greiner Bio‐one). Each experiment was run in triplicate and the fluorescence anisotropy measured using a Perkin–Elmer EnVisionTM 2103 MultiLabel plate reader, with excitation at 480 nm (30 nm bandwidth), polarised dichroic mirror at 505 nm and emission at 535 nm (40 nm bandwidth, S and P polarised). All assays were performed in 20 mM Tris, 100 mM NaCl 0.1 mM DTT, pH 7.46 unless otherwise stated and data analysed following previously published methods.
Where I is the total intensity, G is an instrument factor which was set to 1 for all experiments and r is the anisotropy. The average anisotropy (across three experimental replicates) and the standard deviation of these values were then calculated and fit to a sigmoidal logistic model [Eq. (3)] using OriginPro 9.0 which provided the IC50 and error values: y = r max + (r min−r max)/(1+(x/xo) p).
FA competition assays were performed in 384 well plates with the concentration of peptide competitor typically starting from 850 μM, diluted over 16 points in 1/2 regime with fixed protein and tracer concentrations. […] For control wells, the tracer peptide was replaced with an identical volume of assay buffer. The total volume in each well was 60 μL. Plates were read after 45 minutes of incubation at room temperature.

The next experiment deals with p300 (UniProt Q09472 1-2414). Kind of experiment: fluorescence polarisation; fluorescence anisotropy competition; peptide competitor diluted from about 850 μM over 16 points against fixed p300 (100 nM) and FITC tracer (25 nM in the legend, 50 nM in the methods); 20 mM Tris, 100 mM NaCl, 0.1 mM DTT, pH 7.46; 45 minutes at room temperature. The settings on record: both partners purified.
Chain of p300 (Q09472 whole entry): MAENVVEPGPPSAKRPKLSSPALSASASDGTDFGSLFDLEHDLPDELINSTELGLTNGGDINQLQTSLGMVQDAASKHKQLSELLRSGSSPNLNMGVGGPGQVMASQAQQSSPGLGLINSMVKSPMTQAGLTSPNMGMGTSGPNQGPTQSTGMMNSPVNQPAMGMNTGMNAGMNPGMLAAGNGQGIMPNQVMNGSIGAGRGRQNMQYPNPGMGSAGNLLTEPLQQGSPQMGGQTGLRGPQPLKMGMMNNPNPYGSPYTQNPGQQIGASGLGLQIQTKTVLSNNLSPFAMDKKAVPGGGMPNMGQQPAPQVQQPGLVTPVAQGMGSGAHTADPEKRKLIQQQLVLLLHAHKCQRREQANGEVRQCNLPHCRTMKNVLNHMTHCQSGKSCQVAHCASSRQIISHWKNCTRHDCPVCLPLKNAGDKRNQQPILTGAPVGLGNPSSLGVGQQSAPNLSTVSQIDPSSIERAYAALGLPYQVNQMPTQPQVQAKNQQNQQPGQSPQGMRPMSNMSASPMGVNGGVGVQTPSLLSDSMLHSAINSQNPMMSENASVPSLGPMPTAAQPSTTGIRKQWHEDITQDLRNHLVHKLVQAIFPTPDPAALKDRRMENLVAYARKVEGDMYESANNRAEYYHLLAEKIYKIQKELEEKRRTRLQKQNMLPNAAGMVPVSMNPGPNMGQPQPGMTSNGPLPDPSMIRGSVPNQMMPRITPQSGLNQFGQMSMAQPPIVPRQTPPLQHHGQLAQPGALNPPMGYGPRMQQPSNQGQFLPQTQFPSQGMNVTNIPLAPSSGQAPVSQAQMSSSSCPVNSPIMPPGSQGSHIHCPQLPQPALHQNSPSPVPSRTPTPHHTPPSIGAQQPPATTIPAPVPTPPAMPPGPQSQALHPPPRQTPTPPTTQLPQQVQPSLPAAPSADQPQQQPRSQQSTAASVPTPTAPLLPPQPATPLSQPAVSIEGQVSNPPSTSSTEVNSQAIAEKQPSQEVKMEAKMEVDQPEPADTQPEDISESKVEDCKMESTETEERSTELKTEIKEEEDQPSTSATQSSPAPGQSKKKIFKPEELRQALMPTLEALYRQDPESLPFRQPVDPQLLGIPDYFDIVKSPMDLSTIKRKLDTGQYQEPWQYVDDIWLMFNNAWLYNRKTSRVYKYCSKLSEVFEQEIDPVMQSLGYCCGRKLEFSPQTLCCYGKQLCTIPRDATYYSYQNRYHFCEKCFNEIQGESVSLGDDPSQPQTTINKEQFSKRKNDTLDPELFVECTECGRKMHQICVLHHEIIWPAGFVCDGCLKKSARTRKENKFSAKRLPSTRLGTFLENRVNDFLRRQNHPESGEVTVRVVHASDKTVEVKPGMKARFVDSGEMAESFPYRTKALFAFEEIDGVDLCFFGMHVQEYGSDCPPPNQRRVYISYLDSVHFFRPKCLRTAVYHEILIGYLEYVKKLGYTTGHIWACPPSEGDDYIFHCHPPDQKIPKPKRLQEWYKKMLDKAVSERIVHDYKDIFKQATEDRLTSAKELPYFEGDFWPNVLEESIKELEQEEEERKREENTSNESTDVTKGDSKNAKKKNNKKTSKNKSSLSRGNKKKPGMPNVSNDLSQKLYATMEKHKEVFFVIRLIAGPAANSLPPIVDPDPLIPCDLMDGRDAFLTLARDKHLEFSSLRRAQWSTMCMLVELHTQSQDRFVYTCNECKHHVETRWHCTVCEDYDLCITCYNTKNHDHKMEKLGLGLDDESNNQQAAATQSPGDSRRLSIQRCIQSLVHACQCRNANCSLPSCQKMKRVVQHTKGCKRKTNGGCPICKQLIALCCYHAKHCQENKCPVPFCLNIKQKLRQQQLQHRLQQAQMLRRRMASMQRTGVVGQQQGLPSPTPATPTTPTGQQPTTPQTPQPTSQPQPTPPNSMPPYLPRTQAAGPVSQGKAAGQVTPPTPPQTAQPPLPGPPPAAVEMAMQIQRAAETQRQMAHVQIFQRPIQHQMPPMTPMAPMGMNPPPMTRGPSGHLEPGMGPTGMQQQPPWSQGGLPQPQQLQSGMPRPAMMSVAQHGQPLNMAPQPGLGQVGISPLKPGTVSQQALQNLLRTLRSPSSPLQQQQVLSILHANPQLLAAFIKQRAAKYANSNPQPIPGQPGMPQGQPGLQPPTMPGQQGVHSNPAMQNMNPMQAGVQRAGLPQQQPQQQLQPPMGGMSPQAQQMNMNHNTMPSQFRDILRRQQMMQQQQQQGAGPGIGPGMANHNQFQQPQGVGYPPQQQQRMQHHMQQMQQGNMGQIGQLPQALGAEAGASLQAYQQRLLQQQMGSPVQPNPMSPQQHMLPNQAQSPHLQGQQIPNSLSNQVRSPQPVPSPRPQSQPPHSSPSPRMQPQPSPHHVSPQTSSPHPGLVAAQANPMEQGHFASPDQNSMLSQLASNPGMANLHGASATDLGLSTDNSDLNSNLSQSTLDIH

Regarding `CC(=O)N[C@@H](CC(C)C)C(=O)N[C@@H](CCC(N)=O)C(=O)NCC(=O)N[C@H]1CSSC[C@@H](C(=O)N[C@@H](C)C(=O)N[C@@H](CC(C)C)C(=O)N[C@@H](CC(=O)O)C(=O)N[C@@H](CCC(N)=O)C(=O)N[C@H](C(=O)N[C@@H](CC(N)=O)C(N)=O)C(C)C)NC(=O)[C@H](CC(C)C)NC(=O)[C@H](CC(C)C)NC(=O)[C@H](CCC(=O)O)NC1=O` [HIF‐1α812–826 oxE816C‐R820C] (Ac-LQGCELLCALDQVN-NH2; disulfide 4-8), the IC50 at HIF‐1α/p300 interaction was > 600 µM.
The same measure, in the same setting: the figure for `CC(=O)N[C@@H](CC(C)C)C(=O)N[C@@H](CCC(N)=O)C(=O)NCC(=O)N[C@@H](CS)C(=O)N[C@@H](CCC(=O)O)C(=O)N[C@@H](CC(C)C)C(=O)N[C@@H](CC(C)C)C(=O)N[C@@H](CS)C(=O)N[C@@H](C)C(=O)N[C@@H](CC(C)C)C(=O)N[C@@H](CC(=O)O)C(=O)N[C@@H](CCC(N)=O)C(=O)N[C@H](C(=O)N[C@@H](CC(N)=O)C(N)=O)C(C)C` [HIF‐1α812–826 redE816C‐R820C] (Ac-LQGCELLCALDQVN-NH2) is 9.9 µM.
Turning to “Ac-LQGEELLRALDQVN-NH2 [wt‐HIF‐1α812–826, wild‐type HIF‐1α helix 3 peptide, N‐acetyl, C‐terminal amide]”, at HIF‐1α/p300 interaction (FITC‐Ahx‐HIF‐1α786–826 tracer (25 nM), pH 7.46), the “Inhibition / tracer displacement in FA competition assay” value is “weak inhibition and could not fully displace tracer”.

B1: HIF‐1α_(812–826) sE816C‐R820C (peptide, UniProt Q16665 812-826, looked up)
peptide: Ac-LLQGCELLCALDQVN
modifications: bridge 5-9; not fully specified (bridges)
notes: Made on Rink Amide MBHA resin, so probably a C-terminal amide; also called stapled peptide; dibromomaleimide stapled (s) E816C-R820C; source: synthetic peptide
B1: the IC50 with p300 worked out at 30.3 ± 5 µM.
